Experimental data: the OligoGym collection
“And” between values parts separate entries of the source, which are not always exact repeats. Equal values may be shown once. After the bases stand the sugars from the 5' end (letter, count) and the backbone: PS all phosphorothioate, else s phosphorothioate and o phosphodiester by linkage. Methylation of C is not given here. e = 2'-O-(2-methoxyethyl) (MOE); k = constrained ethyl (cEt); d = 2'-deoxy (DNA); m = 2'-O-methyl

Molecular target: HSD17B13
Settings: ASO, HepaRG

Sequence | target mRNA inhibition (1 µM) | other results
CACCGTTTTGGGCTAA (sugars k3 d10 k3, PS) | 85% | target mRNA inhibition (0.02 µM): 13%; target mRNA inhibition (0.078 µM): 23%; target mRNA inhibition (0.313 µM): 53%; target mRNA inhibition (1.25 µM): 83%; target mRNA inhibition (5 µM): 94%
CACTAATTTAGTCAAC (sugars k3 d10 k3, PS) | 7% | –
CACTGATACATACCAC (sugars k3 d10 k3, PS) | 64% | –
CACTTTGGTATTGTTG (sugars k3 d10 k3, PS) | 53% | –
CACTTTTGGTGGACTT (sugars k3 d10 k3, PS) | 21% | –
CAGAAGTTTTTAAGAG (sugars k3 d10 k3, PS) | 30% | –
CAGAGACATGAGGTTT (sugars k3 d10 k3, PS) | 61% | –
CAGAGTTATTGTAGGG (sugars k3 d10 k3, PS) | 83% | target mRNA inhibition (0.02 µM): 16%; target mRNA inhibition (0.078 µM): 24%; target mRNA inhibition (0.313 µM): 51%; target mRNA inhibition (1.25 µM): 74%; target mRNA inhibition (5 µM): 93%
CAGATTGGAATGCTAC (sugars k3 d9 k3 e1, PS) | 61% | –
CAGATTGGAATGCTAC (sugars k3 d10 k3, PS) | 74% | target mRNA inhibition (0.02 µM): 7%; target mRNA inhibition (0.078 µM): 12%; target mRNA inhibition (0.313 µM): 36%; target mRNA inhibition (1.25 µM): 73%; target mRNA inhibition (5 µM): 94%
CAGAUTATTATGTGAT (sugars k3 d1 m1 d8 k3, PS) | 32% | –
CAGCATCAAGACATTC (sugars k3 d10 k3, PS) | 72% and 70% | –
CAGCATCAAGACATTC (sugars kkdddddddddkekek, PS) | 62% | –
CAGCATTGTAATCTTG (sugars k3 d10 k3, PS) | 43% | –
CAGCCTTAGAGTGAAT (sugars k3 d10 k3, PS) | 82% | target mRNA inhibition (0.02 µM): 6%; target mRNA inhibition (0.078 µM): 23%; target mRNA inhibition (0.313 µM): 36%; target mRNA inhibition (1.25 µM): 73%; target mRNA inhibition (5 µM): 83%
CAGGGTGGTAACGGTG (sugars k3 d9 k3 e1, PS) | 39% | –
CAGGGTGGTAACGGTG (sugars kkdddddddddkekek, PS) | 49% | –
CAGGTTGAGATAAAGC (sugars kkdddddddddkekek, PS) | 53% | –
CAGTCTTAAACCTTCC (sugars k3 d1 m1 d8 k3, PS) | 59% | –
CAGTCTTAAACCTTCC (sugars k3 d9 k3 e1, PS) | 74% and 50% | target mRNA inhibition (0.02 µM): 0%; target mRNA inhibition (0.078 µM): 0%; target mRNA inhibition (0.313 µM): 47%; target mRNA inhibition (1.25 µM): 43%; target mRNA inhibition (5 µM): 79%
CAGTTTTCCTCATGAT (sugars k3 d10 k3, PS) | 65% | –
CATAACTTCATAGTGG (sugars k3 d1 m1 d8 k3, PS) | 38% | –
CATAAGAGCCAAACTG (sugars k3 d10 k3, PS) | 27% | –

Sequence | target mRNA inhibition (1 µM) | other results
CATAATAATAGCTCTA (sugars kkdddddddddkekek, PS) | 13% | –
CATAATCTTGTGCTTG (sugars k3 d10 k3, PS) | 37% | –
CATACCACATACCCAT (sugars k3 d10 k3, PS) | 0% | –
CATAGAACTAGAACTC (sugars k3 d10 k3, PS) | 19% | –
CATAGTTCAAATTGGA (sugars k3 d10 k3, PS) | 39% | –
CATAGTTTATATGGAT (sugars k3 d10 k3, PS) | 56% | –
CATATCAATGCCTTAG (sugars k3 d10 k3, PS) | 29% | –
CATATCTTACTCTGTG (sugars k3 d10 k3, PS) | 47% | –
CATATGTGAAGAGCTG (sugars kkdddddddddkekek, PS) | 35% | –
CATCAAGCCCTTTTCA (sugars k3 d10 k3, PS) | 23% | –
CATCTTAAGATACCCA (sugars k3 d9 k3 e1, PS) | 76% | target mRNA inhibition (0.02 µM): 0%; target mRNA inhibition (0.078 µM): 23%; target mRNA inhibition (0.313 µM): 38%; target mRNA inhibition (1.25 µM): 64%; target mRNA inhibition (5 µM): 79%
CATCTTAAGATACCCA (sugars k3 d10 k3, PS) | 76% | target mRNA inhibition (0.02 µM): 0%; target mRNA inhibition (0.078 µM): 23%; target mRNA inhibition (0.313 µM): 46%; target mRNA inhibition (1.25 µM): 75%; target mRNA inhibition (5 µM): 90%
CATCUTAAGATACCCA (sugars k3 d1 m1 d8 k3, PS) | 56% | –
CATGATTAAGCAGAAT (sugars k3 d10 k3, PS) | 42% | –
CATTACATATCAATGC (sugars k3 d10 k3, PS) | 29% | –
CATTAGCAAGCTAAGA (sugars k3 d10 k3, PS) | 0% | –
CATTATCCTTACTCCC (sugars k3 d10 k3, PS) | 16% | –
CATTTGAAGTCTATAC (sugars k3 d10 k3, PS) | 21% | –
CATTTTTAATACGACT (sugars k3 d10 k3, PS) | 57% | –
CCAAACATGGATGTTA (sugars k3 d10 k3, PS) | 43% | –
CCAAAGATGAGAGTCT (sugars k3 d10 k3, PS) | 19% | –
CCAACCAAACTTCCAG (sugars k3 d9 k3 e1, PS) | 47% | –
CCAACCAAACTTCCAG (sugars k3 d10 k3, PS) | 70% | –

Sequence | target mRNA inhibition (1 µM) | other results
CCAACCCAAGCTACCT (sugars k3 d10 k3, PS) | 15% | –
CCAAGTAATTACTTCT (sugars k3 d10 k3, PS) | 68% | –
CCACACTAATGAATCA (sugars k3 d10 k3, PS) | 43% | –
CCACATACGCATGCGC (sugars k3 d10 k3, PS) | 68% | target mRNA inhibition (0.02 µM): 3%; target mRNA inhibition (0.078 µM): 1%; target mRNA inhibition (0.313 µM): 43%; target mRNA inhibition (1.25 µM): 63%; target mRNA inhibition (5 µM): 88%
CCACGATTGTTACATC (sugars k3 d10 k3, PS) | 42% | –
CCACTGGATGGATTTC (sugars k3 d10 k3, PS) | 68% | –
CCAGAATAGAGTTGCA (sugars k3 d10 k3, PS) | 62% | –
CCAGGTTGAGATAAAG (sugars k3 d9 k3 e1, PS) | 51% | –
CCAGGTTGAGATAAAG (sugars kkdddddddddkekek, PS) | 55% | –
CCAGTACAGTTCCTTT (sugars k3 d10 k3, PS) | 66% | target mRNA inhibition (0.02 µM): 38%; target mRNA inhibition (0.078 µM): 37%; target mRNA inhibition (0.313 µM): 53%; target mRNA inhibition (1.25 µM): 75%; target mRNA inhibition (5 µM): 89%
CCAGTAGGTGTGTTTC (sugars k3 d10 k3, PS) | 55% | –
CCAGUACAGTTCCTTT (sugars k3 d1 m1 d8 k3, PS) | 51% | –
CCATAATCTTGTGCTT (sugars k3 d10 k3, PS) | 32% | –
CCATAGGACATGGAGA (sugars k3 d10 k3, PS) | 68% | target mRNA inhibition (0.02 µM): 7%; target mRNA inhibition (0.078 µM): 12%; target mRNA inhibition (0.313 µM): 31%; target mRNA inhibition (1.25 µM): 76%; target mRNA inhibition (5 µM): 90%
CCATCATCGATGGAAG (sugars k3 d10 k3, PS) | 8% | –
CCATCTATCAGACTTC (sugars k3 d1 m1 d8 k3, PS) | 56% | –
CCCCAAACATGGATGT (sugars k3 d10 k3, PS) | 62% | –
CCCCTAAGTTATTATC (sugars k3 d10 k3, PS) | 33% | –
CCCTAGATTCTACACT (sugars k3 d10 k3, PS) | 22% | –
CCGAATTATTTCTTGC (sugars k3 d10 k3, PS) | 60% | –
CCGCCCTTAAGTCATT (sugars k3 d10 k3, PS) | 53% | –
CCGTTTTGGGCTAATG (sugars k3 d10 k3, PS) | 58% | –
CCGTTTTGGGCTAATG (sugars kkdddddddddkekek, PS) | 72% | target mRNA inhibition (0.02 µM): 0%; target mRNA inhibition (0.078 µM): 4%; target mRNA inhibition (0.313 µM): 36%; target mRNA inhibition (1.25 µM): 52%; target mRNA inhibition (5 µM): 78%

Sequence | target mRNA inhibition (1 µM) | other results
CCTAAAGGAGATCTGA (sugars k3 d10 k3, PS) | 48% | –
CCTAGTTACAAACCAC (sugars k3 d10 k3, PS) | 51% | –
CCTATATACATCCAAG (sugars kkdddddddddkekek, PS) | 61% | –
CCTAUATACATCCAAG (sugars k3 d1 m1 d8 k3, PS) | 39% | –
CCTCGATCCTATATAC (sugars k3 d9 k3 e1, PS) | 11% | –
CCTCGATCCTATATAC (sugars k3 d10 k3, PS) | 31% | –
CCTCTAAGTTAGCCCC (sugars k3 d10 k3, PS) | 97% | –
CCTGCTGAAACTTGAT (sugars k3 d10 k3, PS) | 19% | –
CCTGTGTTAGCTTTAA (sugars k3 d10 k3, PS) | 67% | –
CCTGTGTTAGCTTTAA (sugars kkdddddddddkekek, PS) | 62% | –
CCTGUGTTAGCTTTAA (sugars k3 d1 m1 d8 k3, PS) | 28% | –
CCTTATGTTATCTCAA (sugars k3 d10 k3, PS) | 67% | –
CCTTTAGTTAGAATAG (sugars k3 d10 k3, PS) | 37% | –
CCTTTGTATTTCGCTA (sugars k3 d10 k3, PS) | 47% | –
CCTTTTAACTACCCTC (sugars k3 d10 k3, PS) | 22% | –
CGAATTATTTCTTGCG (sugars k3 d10 k3, PS) | 58% | –
CGATCCTATATACATC (sugars k3 d1 m1 d8 k3, PS) | 28% | –
CGATCCTATATACATC (sugars k3 d9 k3 e1, PS) | 29% | –
CGATCCTATATACATC (sugars k3 d10 k3, PS) | 33% | –
CGATGTGGCCATGATT (sugars k3 d10 k3, PS) | 44% | –
CGATTGTTACATCACC (sugars k3 d10 k3, PS) | 47% | –
CGCCTAAAGGAGATCT (sugars k3 d10 k3, PS) | 59% | –
